Patent US12018252B2, “Methods and compositions for identifying neoantigens for use in treating cancer” (Arizona Board of Regents on Behalf of Arizona State …, priority 2019, dated 2024)

Legend:
[1] = test system: B16-F10 cells; assay: C57BL/B16-F10 mouse melanoma model: genetic immunization then tumor challenge; assay type: in vivo; conditions: B16F10-C57BL6; gene gun genetic immunization; compared to mock/control antigen CPV 172; n=10 per group
[2] = test system: 4T1 cells; assay: BALB/C-4T1 mouse breast tumor model: immunization then tumor challenge; assay type: in vivo; conditions: 4T1-BALB/c
Protocol: BALB/c and C57BL/6 mice were from Charles River Laboratories or Jackson Laboratories. […] Tumor volumes were measured and calculated by (Length^2×Width/2) daily after the size was larger than 1 mm^3. Breeding pairs of BALB-neuT and FVB-neuN (FVB/N-Tg (MMTVneu) 202Mul) mice were obtained from Joseph Lustgarten, Mayo Clinic Arizona. Mice were monitored weekly for the tumor incidence after tumor size reached 1 mm^3. All experiments were performed in accordance with protocols approved by the Institutional Animal Care and Use Committee of Arizona State University.
The DNA fragments encoding FS peptides were cloned as a C-terminal fusion into the genetic immunization vectors pCMVi-UB (26) and pCMVi-LSrCOMPTT (27, 28) with the Bgl II and Hind III and mixed with 1:1 ratio as the vaccine antigen. Three adjuvants were encoded by genetic immunization vectors. The pCMVi-mGM-CSF vector expresses the adjuvant mouse granulocyte/macrophage colony-stimulating factor (mGM-CSF) under control of the human cytomegalovirus (CMV) promoter (27). […]. Vectors pCMVi-UB, pCMVi-LSrCOMPTT, pCMVi-LTA (also called pCMVi-LS-LTA-R192G) and pCMVi-LTB are available from the PSI:Biology-Materials Repository DNASU (dnasu.org) at Arizona State University. Additional adjuvants were the class A CpG 2216 single-stranded oligodeoxynucleotide obtained from Sigma and alum from Pierce.
Bullets for biolistic genetic immunization used the gold micronanoplex approach and were prepared as described (30) with the following changes. Two grams of 1-micron gold was used. Prior to addition of N-hydroxysuccinimide and N-(3-dimethylaminopropyl)-N′-ethylcarbodiimide hydrochloride, the gold was resuspended in 20 mL of a 0.1 M solution of 2-(N-morpholino) ethanesulfonic acid (MES), pH 6.0. DNA-gold micronanoplexes were prepared by combining, per bullet, 57 μL of cysteamine-gold solution with precipitated DNA (≤10 μg) that had been resuspended in ≤15 μL of water, and then vortexing for 10 min. To the DNA-cysteamine-gold was added […] of a freshly made solution of PEI-micron gold (167 mg/mL in 0.1 M MES, pH 6, without NaCl). The pelleted micronanoplexes were washed with ethanol prior to resuspension in n-butanol ([…]), followed by bullet formation under nitrogen gas.
For the three MS FS experiments, all mice (n=10 per group) were genetically immunized in the ear by Gene Gun at 8 weeks of age (2 shots/mouse, 60 ng pooled antigens plus 0.25 μg LTAB and 2.5 μg CpG2216 as the adjuvant for each shot) and boosted twice (two days apart) in three weeks with 1 μg pooled antigens plus the same adjuvants dosage. All mice were boosted again in two weeks with 50 μg KLH conjugated MS FS peptides with 50 μg CpG 2216 and 50 ul alum in total 100 ul PBS. […]

[3] = gene vaccines three times in two week intervals, 2x10^3 4T1 cells subcutaneous, n=4 per group, vs mock

| Sequence | tumor growth (tumor volume) [1] | tumor growth ([2]; gene gun plus KLH-peptide boost, 5x10^3 4T1 cells, n=10 per group) | T cell dependence of protection (CD8 or CD4 T-cell depletion) ([2]; immunized mice depleted with anti CD8 or anti CD4 antibody) | tumor growth [2, 3] |
| --- | --- | --- | --- | --- |
| TAIIGPNGSGCSGVYCHEEPQGEDSSV [SMC1A 1^4 FS, mouse mis-splicing FS antigen, SMC1A exon 1 joined to exon 4] | significant retardation of tumor growth | significantly retarded the 4T1 tumor growth | CD8 T cell dependent | – |
| AVLLMCQLYQPWMCKEYYRLL [ZDHHC17, mouse mis-splicing FS antigen, skips exon 16] | – | – | – | did not |
| IPRMQPQASANHCQLLKVMVA [SLAIN2-FS, mouse mis-splicing FS antigen, skips exon 7] | – | – | – | conferred tumor retardation |
